Legend:
[1] = test system: Vesicular stomatitis Indiana virus; test: Antiviral activity against vesicular stomatitis virus Indiana infected in pig PEK cells assessed as inhibition of virus replication after 48 hrs by MTT assay; type: functional, organism-based
[2] = Cytotoxicity against human TE-32 cells after 72 hrs ny MTT assay; type: cell-based; conditions: RD
[3] = test system: A549; test: Cytotoxicity against human A549 cells after 72 hrs ny MTT assay; type: cell-based; conditions: A549, 72 h
[4] = Therapeutic index, ratio of IC50 for pig PEK cells to EC50 for vesicular stomatitis virus Indiana infected in pig PEK cells; type: cell-based; conditions: read-out: Ratio IC50/EC50
[5] = Cytotoxicity against human MS cells after 72 hrs ny MTT assay; type: cell-based
[6] = Cytotoxicity against pig PEK cells after 48 hrs by MTT assay; type: cell-based, Sus scrofa
[7] = test system: RD; test: Induction of apoptosis in human RD cells at 10.9 uM after 6 hrs by annexinV-FITC/propidium iodide staining-based flow cytometry relative to control; type: cell-based
[8] = test system: RD; test: Induction of apoptosis in human RD cells assessed as late apoptotic/necrotic cells at 10.9 uM after 6 hrs by annexinV-FITC/propidium iodide staining-based flow cytometry (reference value: 1.20%); type: cell-based
[9] = test system: RD; test: Induction of apoptosis in human RD cells assessed as early apoptotic cells at 10.9 uM after 6 hrs by annexinV-FITC/propidium iodide staining-based flow cytometry (reference value: 1.21%); type: cell-based
[10] = Induction of apoptosis in human RD cells assessed as viable cells at 10.9 uM after 6 hrs by annexinV-FITC/propidium iodide staining-based flow cytometry (reference value: 96.85%); type: cell-based; conditions: read-out: Activity
[11] = test system: RD; test: Induction of apoptosis in human RD cells assessed as damaged cells at 10.9 uM after 6 hrs by annexinV-FITC/propidium iodide staining-based flow cytometry (reference value: 0.84%); type: cell-based
[12] = test system: RD; test: Induction of apoptosis in human RD cells assessed as early apoptotic cells at 4.5 uM after 6 hrs by annexinV-FITC/propidium iodide staining-based flow cytometry (reference value: 1.21%); type: cell-based
[13] = test system: RD; test: Induction of apoptosis in human RD cells assessed as late apoptotic/necrotic cells at 4.5 uM after 6 hrs by annexinV-FITC/propidium iodide staining-based flow cytometry (reference value: 1.20%); type: cell-based
[14] = Induction of apoptosis in human RD cells assessed as viable cells at 4.5 uM after 6 hrs by annexinV-FITC/propidium iodide staining-based flow cytometry (reference value: 96.85%); type: cell-based; conditions: read-out: Activity
[15] = test system: RD; test: Induction of apoptosis in human RD cells assessed as damaged cells at 4.5 uM after 6 hrs by annexinV-FITC/propidium iodide staining-based flow cytometry (reference value: 0.84%); type: cell-based
[16] = Vesicular stomatitis Indiana virus, PEK, 48 h, read-out: EC50

| SMILES | EC50 [1, 16] [µM] | IC50 [2] [µM] | IC50 [3] [µM] | selectivity ratio [4] | IC50 [5] [µM] | EC50 ([1]; pek) | also measured |
| --- | --- | --- | --- | --- | --- | --- | --- |
| C=C(C)[C@@H]1CC[C@]2(C(=O)OC)CC[C@]3(C)[C@H](CC[C@@H]4[C@@](C)(CC#N)[C@H](C(C)(C)[C@@H]5OC(C)=NN5C(C)=O)CC[C@]43C)[C@@H]12 | 0.34 | > 200 | 133 | 5 | 110 |  | Activity [6]: Toxic |
| C=C(C)[C@@H]1CC[C@]2(C(=O)NC(C)C)CC[C@]3(C)[C@H](CC[C@@H]4[C@@](C)(CC#N)[C@H](C(C)(C)/C=N/NC(C)=O)CC[C@]43C)[C@@H]12 |  |  |  |  |  | Not Active |  |
| C=C(C)[C@@H]1CC[C@]2(C(=O)OC)CC[C@]3(C)[C@H](CC[C@@H]4[C@@](C)(CC#N)[C@H](C(C)(C)/C=N/NC(C)=O)CC[C@]43C)[C@@H]12 | 1.58 |  |  | 37 |  |  |  |
| C=C(C)[C@@H]1CC[C@]2(C(=O)OC)CC[C@]3(C)[C@H](CC[C@@H]4[C@@](C)(CC#N)[C@H](C(C)(C)/C=N/N(C(C)=O)C(C)=O)CC[C@]43C)[C@@H]12 |  |  |  | 2 |  | Not Active |  |
| CC(=O)N(/N=C/C(C)(C)[C@@H]1CC[C@]2(C)[C@H](CC[C@@H]3[C@H]4[C@H]5OC[C@@]4(CCC5(C)C)CC[C@]32C)[C@@]1(C)CC#N)C(C)=O | 15.9 |  |  | 8 |  |  |  |
| CC(=O)N1N=C(C)O[C@@H]1C(C)(C)[C@@H]1CC[C@]2(C)[C@H](CC[C@@H]3[C@H]4[C@H]5OC[C@@]4(CCC5(C)C)CC[C@]32C)[C@@]1(C)CC#N |  | 82.2 | 147 |  | 11.5 | Not Active |  |
| CC(=O)N1N=C(C)O[C@H]1C(C)(C)[C@@H]1CC[C@]2(C)[C@H](CC[C@@H]3[C@H]4[C@H]5OC[C@@]4(CCC5(C)C)CC[C@]32C)[C@@]1(C)CC#N |  | 85 | 95.5 |  | 40.3 | Not Active |  |
| CC(=O)N/N=C/C(C)(C)[C@@H]1CC[C@]2(C)[C@H](CC[C@@H]3[C@H]4[C@H]5OC[C@@]4(CCC5(C)C)CC[C@]32C)[C@@]1(C)CC#N | 0.41 |  |  | 149 |  |  |  |
| COC(=O)[C@@]1(C)CC[C@]2(C)CC[C@]3(C)C(=CC(=O)[C@@H]4[C@@](C)(CC#N)[C@H](C(C)(C)[C@H]5OC(C)=NN5C(C)=O)CC[C@]43C)[C@@H]2C1 |  | 166 | 133 |  | 88.7 |  |  |
| C=C(C)[C@@H]1CC[C@]2(C(=O)OC)CC[C@]3(C)[C@H](CC[C@@H]4[C@@](C)(CC#N)[C@H](C(C)(C)[C@H]5OC(C)=NN5C(C)=O)CC[C@]43C)[C@@H]12 | 0.62 | 10.9 | 18.6 | 3 | 5.84 |  | fold change (FC) [7]: 3; Activity [8]: 2.21%; Activity [9]: 3.83%; viability at 6 h, 10.9 µM [10]: 92.5%; Activity [11]: 1.51%; Activity [6]: Toxic |
| COC(=O)[C@@]1(C)CC[C@]2(C)CC[C@]3(C)C(=CC(=O)[C@@H]4[C@@](C)(CC#N)[C@H](C(C)(C)[C@@H]5OC(C)=NN5C(C)=O)CC[C@]43C)[C@@H]2C1 |  | > 200 | > 200 |  | 71.2 |  |  |
| COC(=O)[C@@]1(C)CC[C@]2(C)CC[C@]3(C)C(=CC(=O)[C@@H]4[C@@](C)(CC#N)[C@H](C(C)(C)/C=N/NC(C)=O)CC[C@]43C)[C@@H]2C1 | 18.4 |  |  | 2 |  |  |  |
| C=C(C)[C@@H]1CC[C@]2(C(=O)O)CC[C@]3(C)[C@H](CC[C@@H]4[C@@]5(C)CC[C@H](O)C(C)(C)[C@@H]5CC[C@]43C)[C@@H]12 [BETULINIC ACID] | 160 | 23.9 | 44 | 0.07 | 16 |  |  |
| CC[C@@]1(O)C(=O)OCc2c1cc1n(c2=O)Cc2cc3ccccc3nc2-1 [CAMPTOTHECIN] |  | 4.47 | 37.1 |  | 0.23 |  | Activity [12]: 4.08%; Activity [13]: 3.1%; viability at 6 h, 4.5 µM [14]: 92.2%; Activity [15]: 0.67% |
| C=C(C)[C@@H]1CC[C@]2(C(=O)NCCC(=O)OCC)CC[C@]3(C)[C@H](CC[C@@H]4[C@@](C)(CC#N)[C@H](C(C)(C)/C=N/NC(C)=O)CC[C@]43C)[C@@H]12 |  |  |  |  |  | Not Active |  |
